From patent US7157569B2, “Mutation associated with epilepsy” (Bionomics Limited, priority 2000, dated 2007)
Entries after “also recorded” stand apart in the source; their conditions may differ.

What was measured:
[1] = test system: GABRA1:GABRB2:GABRG2(Q351X) GABAA receptor; assay: GABA current response in Xenopus laevis oocytes, Q351X mutant; type: cell-based, human; details: 1:1:10 GABRA1:GABRB2:GABRG2(Q351X) cRNA injection ratio
Description: (§1) To test the effects of the GABRG2 mutations on GABAA receptor function, electrophysiological analysis of Xenopus laevis oocytes were conducted. cDNAs encoding the GABRA1, GABRB2 and GABRG2 subunits of the human GABAA receptor were subcloned into pcDNA3.1(+). The c245G→A and c1168C→T mutations were introduced separately into GABRG2 of the human GABAA receptor using the QuickChange site directed mutagenesis kit (Stratagene, La Jolla, Calif.). The oligonucleotide represented by SEQ ID NO:50 (5′ GGATATGACAATAAACTTCAGCCTGATATAGGAGTGAAGCC 3′) was used to incorporate the c245G→A mutation, while the oligonucleotide represented by SEQ ID NO:51 (5′ GCGAATTCATTAAATGGTTGCTGATCTTGGGCG 3′) was used to incorporate the c1168C→T mutation. Successful mutagenesis was identified by DNA sequencing. Wild-type and mutant cDNAs were linearised and gel purified and cRNA was made using the T7 RNA polymerase Message Machine in vitro RNA synthesis kit (Ambion). Samples of cRNA were run on denaturing agarose gels to ensure they were the correct size and were not degraded. Xenopus laevis oocytes (stage V or VI) were microinjected with ˜25 ng of cRNA representing the GABAA subunits. A tenfold molar excess of wild-type and mutant GABRG2 was used to promote assembly of the ternary (GABRA1:GABRB2:GABRG2) rather than binary (GABRA1:GABRB2) complex. […]

[2] = molecular target: T1, GABRA1:GABRB2:GABRG2 wild-type GABAA receptor (Homo sapiens, UniProt P14867+P18507+P47870); assay: GABA current response in Xenopus laevis oocytes, wild-type GABRG2; type: cell-based; details: 1:1:10 ratio with wild-type GABRG2
T1 construct: expressed in transfected cells; host or cells: Xenopus laevis oocytes (cRNA injection)
T1 sequence (P18507 40-467 isoform P18507-1 limits assumed, one chain of several): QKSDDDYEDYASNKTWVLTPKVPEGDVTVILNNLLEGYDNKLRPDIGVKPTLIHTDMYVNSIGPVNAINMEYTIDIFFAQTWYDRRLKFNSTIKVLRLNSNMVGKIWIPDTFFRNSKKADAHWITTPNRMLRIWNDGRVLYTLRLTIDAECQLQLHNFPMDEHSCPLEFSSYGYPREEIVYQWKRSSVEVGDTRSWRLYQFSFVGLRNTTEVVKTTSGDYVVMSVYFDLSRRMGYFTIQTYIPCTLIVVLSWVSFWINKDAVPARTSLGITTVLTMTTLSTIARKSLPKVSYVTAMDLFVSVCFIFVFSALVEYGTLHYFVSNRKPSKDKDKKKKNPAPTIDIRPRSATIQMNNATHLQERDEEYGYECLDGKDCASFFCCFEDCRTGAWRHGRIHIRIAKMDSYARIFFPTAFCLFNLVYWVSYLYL
Description: as §1

[3] = molecular target: T2, GABRA1:GABRB2 GABAA receptor (Homo sapiens, UniProt P14867+P47870); assay: GABA current response in Xenopus laevis oocytes, GABRA1:GABRB2:water; type: cell-based; details: 1:1:10 GABRA1:GABRB2:water injection ratio
T2 construct: expressed in transfected cells; host or cells: Xenopus laevis oocytes (cRNA injection)
T2 sequence (P14867 28-456): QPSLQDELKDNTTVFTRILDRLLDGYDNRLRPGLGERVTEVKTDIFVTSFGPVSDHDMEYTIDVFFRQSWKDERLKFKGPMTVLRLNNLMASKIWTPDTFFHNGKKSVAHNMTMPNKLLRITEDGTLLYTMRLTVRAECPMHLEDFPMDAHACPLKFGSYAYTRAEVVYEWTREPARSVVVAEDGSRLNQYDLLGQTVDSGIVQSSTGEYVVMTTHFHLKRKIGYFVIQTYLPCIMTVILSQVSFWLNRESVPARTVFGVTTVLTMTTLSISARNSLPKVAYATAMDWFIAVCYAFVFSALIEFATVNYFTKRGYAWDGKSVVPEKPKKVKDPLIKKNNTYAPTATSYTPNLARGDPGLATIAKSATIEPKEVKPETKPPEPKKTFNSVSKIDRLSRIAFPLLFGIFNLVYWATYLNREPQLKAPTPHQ
T2 sequence (P47870 26-512): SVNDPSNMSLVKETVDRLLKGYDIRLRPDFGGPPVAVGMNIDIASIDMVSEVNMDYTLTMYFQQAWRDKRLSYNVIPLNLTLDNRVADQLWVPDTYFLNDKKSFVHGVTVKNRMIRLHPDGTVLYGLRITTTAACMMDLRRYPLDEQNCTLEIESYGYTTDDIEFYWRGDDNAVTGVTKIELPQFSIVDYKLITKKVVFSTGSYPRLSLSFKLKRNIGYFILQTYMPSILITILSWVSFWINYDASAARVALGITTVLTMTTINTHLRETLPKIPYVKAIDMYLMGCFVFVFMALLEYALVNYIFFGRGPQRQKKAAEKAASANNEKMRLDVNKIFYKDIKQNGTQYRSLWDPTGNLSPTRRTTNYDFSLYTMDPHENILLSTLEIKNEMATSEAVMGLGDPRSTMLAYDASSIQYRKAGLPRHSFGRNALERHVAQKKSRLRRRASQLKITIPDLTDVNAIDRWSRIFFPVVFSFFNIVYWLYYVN
Description: as §1

[4] = molecular target: T3, GABAA receptor containing GABRG2(R43Q) (Homo sapiens, UniProt P14867+P18507+P47870, R82Q/T120M/T181S); assay: GABA electrophysiological response in Xenopus oocytes, GABRG2(R43Q); type: cell-based; details: oocytes expressing GABRG2 or GABRG2(R43Q)
T3 construct: expressed in transfected cells; host or cells: Xenopus laevis oocytes (cRNA injection)
T3 sequence (P14867 28-456): T2 sequence (P14867 28-456)
T3 sequence (P47870 26-512): T2 sequence (P47870 26-512)
T3 sequence (P18507 40-467 isoform P18507-1 R82Q/T120M/T181S): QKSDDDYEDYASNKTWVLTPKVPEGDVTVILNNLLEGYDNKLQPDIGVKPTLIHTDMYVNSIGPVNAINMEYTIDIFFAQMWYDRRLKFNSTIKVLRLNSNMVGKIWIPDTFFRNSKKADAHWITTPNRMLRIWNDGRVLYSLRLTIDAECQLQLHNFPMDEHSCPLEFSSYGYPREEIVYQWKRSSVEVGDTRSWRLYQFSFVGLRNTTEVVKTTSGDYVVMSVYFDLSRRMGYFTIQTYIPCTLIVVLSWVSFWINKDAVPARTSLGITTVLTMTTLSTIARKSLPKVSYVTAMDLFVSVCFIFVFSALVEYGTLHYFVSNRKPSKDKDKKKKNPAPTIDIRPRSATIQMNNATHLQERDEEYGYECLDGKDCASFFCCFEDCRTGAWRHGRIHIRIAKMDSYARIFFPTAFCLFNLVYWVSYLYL
Description: as §1

[5] = molecular target: T4, mutant [α1β2γ2 (R43Q)] GABAA receptor (Homo sapiens, UniProt P14867+P18507+P47870, R82Q/T120M/T181S); assay: Zn2+ sensitivity of GABA-activated currents in Xenopus laevis oocytes, R43Q mutant channels; type: cell-based
T4 construct: expressed in transfected cells; host or cells: Xenopus laevis oocytes (cRNA injection)
T4 sequence (P14867 28-456): T2 sequence (P14867 28-456)
T4 sequence (P47870 26-512): T2 sequence (P47870 26-512)
T4 sequence (P18507 40-467 isoform P18507-1 R82Q/T120M/T181S): T3 sequence (P18507 40-467 isoform P18507-1 R82Q/T120M/T181S)
Description: as §1

[6] = molecular target: T5, wild-type (α1β2γ2) GABAA receptor (Homo sapiens, UniProt P14867+P18507+P47870); set-up: expressed in transfected cells; details: correct assembly of GABRA1, GABRB2 and GABRG2; Draguhn et al, 1990; cited from earlier work
T5 sequence (P18507 40-467 isoform P18507-1 limits assumed, one chain of several): as the sequence (P18507 40-467 isoform P18507-1 limits assumed, one chain of several) above

[7] = molecular target: T6, GABRA1 and GABRB2 (α1β2) GABAA receptor (Homo sapiens, UniProt P14867+P47870); set-up: expressed in transfected cells; details: GABRA1 and GABRB2 alone; Draguhn et al, 1990; cited from earlier work
T6 sequence (P14867 28-456): T2 sequence (P14867 28-456)
T6 sequence (P47870 26-512): T2 sequence (P47870 26-512)

[8] = molecular target: T5, wild-type (α1β2γ2) GABAA receptor; assay: Zn2+ sensitivity of GABA-activated currents in Xenopus laevis oocytes, wild-type channels; type: cell-based; set-up: expressed in transfected cells; host or cells: Xenopus laevis oocytes (cRNA injection); details: Zn2+ 10 μM, n=9
Description: as §1

[9] = molecular target: T6, GABRA1 and GABRB2 (α1β2) GABAA receptor; assay: Zn2+ sensitivity of GABA-activated currents in Xenopus laevis oocytes, GABRA1 and GABRB2 alone; type: cell-based; set-up: expressed in transfected cells; host or cells: Xenopus laevis oocytes (cRNA injection)
Description: as §1

[10] = molecular target: T7, wild-type GABRA1:GABRB2:GABRG2 (α1β2γ2) GABAA receptor (Homo sapiens, UniProt P14867+P18507+P47870); assay: Diazepam potentiation of GABA currents, two-electrode voltage clamp in Xenopus laevis oocytes, wild-type channels; type: cell-based; details: GABA 1 μM, diazepam 1 μM
T7 construct: expressed in transfected cells; host or cells: Xenopus laevis oocytes (cRNA injection)
T7 sequence (P18507 40-467 isoform P18507-1 limits assumed, one chain of several): as the sequence (P18507 40-467 isoform P18507-1 limits assumed, one chain of several) above
Description: as §1, with “The oligonucleotide represented by SEQ ID NO:50 (5′ GGATATGACAATAAACTTCAGCCTGATATAGGAGTGAAGCC 3′) was used to incorporate the c245G→A mutation, while the oligonucleotide represented by SEQ ID NO:51 (5′ GCGAATTCATTAAATGGTTGCTGATCTTGGGCG 3′) was used to incorporate the c1168C→T mutation.” left out, “complex. Oocytes were then stored in OR2 buffer (82.5 mM NaCl, 2 mM KCl, 1 mM MgCl2, 5 mM HEPES, pH 7.5, supplemented with 2% foetal bovine serum, 100 U/ml penicillin, 100 μg/ml streptomycin, Life Technologies) and incubated at 18° C. for three to five days to allow for adequate receptor expression.” for “complex.”

[11] = molecular target: T8, mutant GABRA1:GABRB2:GABRG2(R43Q) [α1β2γ2 (R43Q)] GABAA receptor (Homo sapiens, UniProt P14867+P18507+P47870, R82Q/T120M/T181S); assay: Diazepam potentiation of GABA currents, two-electrode voltage clamp in Xenopus laevis oocytes, R43Q mutant channels; type: cell-based; details: for small, insignificant decrease in GABA current with diazepam, mean±SEM: GABA 1 μM, diazepam 1 μM, R43Q mutant channels, n=17, a decrease, not a potentiation
T8 construct: expressed in transfected cells; host or cells: Xenopus laevis oocytes (cRNA injection)
T8 sequence (P14867 28-456): T2 sequence (P14867 28-456)
T8 sequence (P47870 26-512): T2 sequence (P47870 26-512)
T8 sequence (P18507 40-467 isoform P18507-1 R82Q/T120M/T181S): T3 sequence (P18507 40-467 isoform P18507-1 R82Q/T120M/T181S)
Description: (§2) To test the effects of the GABRG2 mutations on GABAA receptor function, electrophysiological analysis of Xenopus laevis oocytes were conducted. cDNAs encoding the GABRA1, GABRB2 and GABRG2 subunits of the human GABAA receptor were subcloned into pcDNA3.1(+). The c245G→A and c1168C→T mutations were introduced separately into GABRG2 of the human GABAA receptor using the QuickChange site directed mutagenesis kit (Stratagene, La Jolla, Calif.). […] Successful mutagenesis was identified by DNA sequencing. Wild-type and mutant cDNAs were linearised and gel purified and cRNA was made using the T7 RNA polymerase Message Machine in vitro RNA synthesis kit (Ambion). Samples of cRNA were run on denaturing agarose gels to ensure they were the correct size and were not degraded. Xenopus laevis oocytes (stage V or VI) were microinjected with ˜25 ng of cRNA representing the GABAA subunits. A tenfold molar excess of wild-type and mutant GABRG2 was used to promote assembly of the ternary (GABRA1:GABRB2:GABRG2) rather than binary (GABRA1:GABRB2) complex. Oocytes were then stored in OR2 buffer (82.5 mM NaCl, 2 mM KCl, 1 mM MgCl2, 5 mM HEPES, pH 7.5, supplemented with 2% foetal bovine serum, 100 U/ml penicillin, 100 μg/ml streptomycin, Life Technologies) and incubated at 18° C. for three to five days to allow for adequate receptor expression. Current recordings from oocytes were made using a two-electrode voltage clamp (AxoClamp 2B, Axon Instruments), with recordings made at a holding potential of −80 mV. Electrodes were filled with 3 M KCl and were of 1–2 MΩ resistance. Oocytes were continuously perfused with ND96 solution (96 mM NaCl, 2 mM KCl, 1 mM MgCl2, 1.8 mM BaCl2 and 5 mM HEPES, pH 7.5). gamma-Aminobutyric acid (GABA; Sigma-Aldrich, Australia) was applied by bath perfusion.

[12] = test system: GABAA receptor from 50:50 mixture of GABRG2 and GABRG2(R43Q); assay: Diazepam potentiation in oocytes injected with 50:50 mixture of GABRG2 and GABRG2(R43Q) cRNA; type: cell-based, human; details: n=8
Description: as §2, with “Current recordings from oocytes were made using a two-electrode voltage clamp (AxoClamp 2B, Axon Instruments), with recordings made at a holding potential of −80 mV. Electrodes were filled with 3 M KCl and were of 1–2 MΩ resistance. Oocytes were continuously perfused with ND96 solution (96 mM NaCl, 2 mM KCl, 1 mM MgCl2, 1.8 mM BaCl2 and 5 mM HEPES, pH 7.5). gamma-Aminobutyric acid (GABA; Sigma-Aldrich, Australia) was applied by bath perfusion.” left out

## NCCCC(=O)O [GABA, gamma-Aminobutyric acid]
[1]
  current response to GABA: abolishes responses to GABA; also recorded: no current response
[2]
  current response to GABA: strong current responses
[3]
  current response to GABA: gave current responses
[4]
  electrophysiological responses to GABA versus wild-type GABRG2: indistinguishable

## [Zn+2] [Zn^2+]
[5]; GABRG2(R43Q) versus GABRG2 expressing oocytes
  effect of Zn2+ compared with wild-type GABRG2: same effect
[5]; Zn2+ 10 μM, R43Q mutant, n=9
  partial inhibition of the GABA current by Zn2+: 40±5%
[6]
  sensitivity of currents to Zn2+: significantly less sensitive
[7]
  sensitivity of currents to Zn2+: extremely sensitive
[8]
  partial inhibition of the GABA current by Zn2+: 37±2%
[9]; Zn2+ 10 μM, GABA 100 μM, α1β2 alone, n=8
  GABA-activated current abolished by Zn2+: 89±7%
[9]; oocytes expressing only GABRA1 and GABRB2
  effect of Zn2+ on GABA-activated currents: totally abolished

## CN1C(=O)CN=C(c2ccccc2)c2cc(Cl)ccc21 [diazepam]
[10]; n=20, P<0.01
  increase of GABA currents by diazepam (potentiation), mean±SEM: 303±33%
[10]; n=20, P<0.01, listed as Diazepam
  increase of GABA currents by diazepam (potentiation), mean±SEM: 302±33%
[11]
  small, insignificant decrease in GABA current with diazepam, mean±SEM: 10±6%
[11]; listed as Diazepam
  small, insignificant decrease in GABA current with diazepam, mean±SEM: 10%±6
[11]; receptors containing the GABRG2(R43Q) subunit
  diazepam potentiation: completely abolished
[12]
  intermediate diazepam potentiation: 129±30%
